Laboratory results: patent US20120208873A1, “TEA POLYPHENOLS PRODUCTS FOR CEASING SMOKING AND TREATING AND/OR PREVENTING NICOTINE OR NICOTINE-DERIVED COMPOUNDS OR ESTROGEN INDUCED BREAST CANCER” (priority 2011, published 2012)
Read-outs that look alike come from different tables or passages of the source.

Assays:
α9-nAChR promoter = α9-nAChR promoter luciferase activity assay in MCF-7 cells; type: cell-based, human; details: 24-h treatment, Nic 10 μM or E2 10 nM, vehicle = one-fold
Protocol: All α9-nAChR promoter—luciferase gene fusions were made in the pGL3-Basic vector (Promega, Madison, Wis., USA) by introducing the appropriate α9-nAChR promoter fragments into the polylinker upstream of the luciferase gene. These fragments were generated with restriction enzymes and cloned directly into pGL3-Basic or subcloned first in pBluescript and then transferred to pGL3-Basic. Deletion analysis of the most promoter-proximal region was performed by generating either appropriate restriction enzyme fragments or PCR fragments with suitable sense oligonucleotides and an antisense primer (5′-[…]-3′ (SEQ ID NO:1)) that anneals to the pGL3-Basic vector downstream of the site of transcription initiation.
MCF-7 cells were plated in 6-well plates. Cells were transiently cotransfected the next day with 1.5 μg of PGL3-Basic plasmid containing the full-length α9-nAChR promoter and 0.1 μg of the RLTK plasmid (Promega) using an MP-100 microporator (Digital Bio), according to the manufacturer's instructions. After incubation for 24 h, the medium was changed to culture medium containing 10% FBS or 0.1% FB S with or without Nic. Cells were lysed 24 h later with 1× Reporter Lysis Buffer (Promega) and stored frozen at −20° C. overnight. Luciferase activity was determined by testing 50 μL of the cell lysate and 50 μL of the Luciferase Assay Reagent (Promega) using a HIDEX Chameleon Microplate Reader. Relative luciferase units were normalized to renilla luciferase from the same cell lysates. Each luciferase assay experiment was performed three times.

α9-nAChR protein = α9-nAChR protein levels by immunoblotting in MCF-7 cells; type: cell-based, human
Protocol: (§1) Human mammary gland epithelial adenocarcinomas (MCF7, MDA-MB-231, AU-565, MDA-MB-453, and BT-483) and normal human mammary gland epithelial fibrocystic cell lines (MCF-10A and HBL-100) were purchased from ATCC (American Type Culture Collection, Manassas, Va., USA). MCF-7, MDA-MB-231, and MDA-MB-453 cells were maintained in DMEM, whereas BT-483 cells were maintained in RPMI-1640. Cell growth, proliferation, and viability were determined by the 3-(4,5-dimethylthiazol-2-yl)-2,5-diphenyltetrazolium (MTT) assay. The formazan product was measured by absorbance at 540 nm.
(§2) To prepare protein samples, cells were washed once with ice-cold PBS and lysed on ice in cell lysis buffer (50 mM Tris-HCl, pH 8.0, 120 mM […], 0.5% Nonidet P-40, 100 mM sodium fluoride, and 200 μM sodium orthovanadate) containing protease inhibitors as described previously (Shih, Y. L., Liu, H. C., Chen, C. S., Hsu, C. H. et al., J. Agric. Food Chem. 2010, 58, 235-241). Protein (50 μg) from each sample was resolved by 12% SDS-polyacrylamide gel electrophoresis, transferred, and analyzed by Western blotting. Antibodies were purchased from the following vendors: anti-total AKT and protein A/G agarose beads were obtained from Santa Cruz Biotechnology (Santa Cruz, Calif., USA); anti-GAPDH and anti-α9-nAChR antibodies were from Abcam (Cambridge, UK); antiphospho AKT (Ser^473), anti-c-Jun, and anti-c-Fos were from Cell Signaling Technology (Beverly, Mass., USA). The secondary antibodies, alkaline phosphatase-coupled anti-mouse, and anti-rabbit IgG were purchased from Santa Cruz Biotechnology. The specific protein complexes were identified with the chromogenic substrates nitro blue tetrazolium, and 5-bromo-4-chloro-3-indolyl-phosphate from KPL (Gaithersburg, Md., USA). In each experiment, proteins were also probed with anti-GAPDH antibodies as a protein-loading control.

AP-1 = assay: ChIP assay of AP-1 binding to the α9-nAChR promoter in MCF-7 cells; type: cell-based, human; details: 24 h after Nic 10 μM
Protocol: Chromatin immunoprecipitation (ChIP) assays of cultured cells were performed as described previously (Chen, C. S., Lee, C. H., Hsieh, C. D., Ho, C. T. et al., Breast Cancer Res. Treat. 2010; Shih, Y. L., Liu, H. C., Chen, C. S., Hsu, C. H. et al., J. Agric. Food Chem. 2010, 58, 235-241). Briefly, after various regimens of Nic treatment, the cells were fixed with a final concentration of 1% formaldehyde directly added to the cell culture medium at 25° C. for 15 min. The crosslinking reaction was terminated with 0.125 M glycine for 5 min, and the cells were collected into a new Eppendorf tube. The cell lysate was sonicated three times with 10 s bursts to yield input DNA enriched for fragments around 1000 bp in size. A c-Jun (AP-1) antibody (Santa Cruz Biotechnology) was used for the immunoprecipitation reactions. Primers, which detect the a9-nAChR promoter regions, amplified a region from −960 to −1 for 32 cycles (forward: 5′-ATGCAATG CAAGCCTGAGCT-3′ (SEQ ID NO:2) and reverse: 5′-TATA-[…]-3′ (SEQ ID NO:3)). The PCR products were then separated and analyzed by agarose gel electrophoresis.

MCF-7 cells = assay: Cell proliferation (MTT assay) in MCF-7 cells; type: cell-based, human; details: Nic 10 μM
Protocol: as §1

MCF-10A cells = assay: Cell proliferation (MTT assay) in normal MCF-10A cells; type: cell-based, human; details: Nic 10 μM or EGCG 10-25 μM
Protocol: as §1

[1] = cited from earlier work
α9-nAChR mRNA = α9-nAChR mRNA by RT-PCR / real-time PCR in MCF-7 cells; type: cell-based, human
Protocol: Total RNA was isolated from human cell lines using TRIzol (Invitrogen, Carlsbad, Calif., USA) according to the manufacturer's protocol. The α9-nAChR subunit-specific primers were synthesized by MB Mission BioTech (Taipei, Taiwan) as described in the previous reports (Chen, C. S., Lee, C. H., Hsieh, C. D., Ho, C. T. et al., Breast Cancer Res. Treat. 2010; Shih, Y. L., Liu, H. C., Chen, C. S., Hsu, C. H. et al., J. Agric. Food Chem. 2010, 58, 235-241). The PCR amplicons were analyzed on 1.2% agarose gels (Amresco, Solon, Ohio, USA) stained with ethidium bromide. The α9-nAChR mRNA intensity was measured and normalized to β-glucuronidase expression. Pictures of the bands were taken using an INFINITY-α digital imaging system (Vilber Lourmat, France), and band intensities were determined using PhotoCapt Version 11.01 software.

p-AKT (Ser^473) = assay: phosphorylated AKT by immunoblotting in MCF-7 cells; type: cell-based, human; details: Nic 10 μM or E2 10 nM, 24 h
Protocol: as §2

α9-nAChR = biological target: T1, α9-nAChR (Homo sapiens, UniProt Q9UGM1); details: MCF-7 cells, previous results, cited from earlier work
T1 construct: breast cancer cell proliferation induced by Nic could be mediated through endogenous α9-nAChR; endogenous in cells; host or cells: MCF-7 cell monolayers: wild type, scramble control (Sc) and α9-nAChR siRNA knockdown (Si) clones
T1 sequence (Q9UGM1 26-479 limits assumed): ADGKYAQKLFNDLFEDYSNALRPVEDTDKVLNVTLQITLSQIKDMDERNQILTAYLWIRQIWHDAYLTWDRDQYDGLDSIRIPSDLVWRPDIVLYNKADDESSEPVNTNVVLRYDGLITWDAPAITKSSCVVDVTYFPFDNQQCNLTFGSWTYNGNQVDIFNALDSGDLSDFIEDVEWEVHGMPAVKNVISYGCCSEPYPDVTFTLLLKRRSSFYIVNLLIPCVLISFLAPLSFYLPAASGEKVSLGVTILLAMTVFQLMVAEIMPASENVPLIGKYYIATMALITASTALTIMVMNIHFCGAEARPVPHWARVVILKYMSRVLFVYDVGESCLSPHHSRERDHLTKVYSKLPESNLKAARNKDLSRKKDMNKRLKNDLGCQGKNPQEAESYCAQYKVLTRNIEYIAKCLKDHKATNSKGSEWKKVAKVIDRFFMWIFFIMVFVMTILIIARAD

For `C[C@]12CC[C@@H]3c4ccc(O)cc4CC[C@H]3[C@@H]1CC[C@@H]2O` [E2, estradiol], the “induction of full-length α9-nAChR promoter luciferase activity” value (α9-nAChR promoter) was 2.3 fold.
In the case of `O=c1cc(N2CCOCC2)oc2c(-c3ccccc3)cccc12` [LY294002], the “Nic- and E2-induced upregulation of α9-nAChR protein after inhibitor pretreatment” value (α9-nAChR protein; MCF-7, 24 h pretreatment (LY294002 25 μM or EGCG 10 μM), then Nic 10 μM or E2 10 nM 24 h) is reported as “not significantly inhibited”.
With `CN(CCCC(=O)c1cccnc1)N=O` [NNK, 4-(methylnitrosamino)-1-(3-pyridyl)-1-butanone] the α9-nAChR protein level (α9-nAChR protein; MCF-7, Nic 0.1-10 μM, NNK 0.1-10 μM or E2 1-200 nM, 24 h, dose-dependent) was “significantly induced”.
In the case of `CN1CCCC1c1cccnc1` (centres unmarked) [Nic, nicotine], the “binding of AP-1 to the α9-nAChR promoter” value (AP-1) is reported as “increased binding”, the “time after Nic treatment at which significant increase in α9-nAChR protein level was detected” value (α9-nAChR protein) is reported as 6 h and the α9-nAChR protein level (α9-nAChR protein) is reported as “significantly induced”. The “cellular proliferation rates in wild-type (C) and scrambled vector control (Sc) cells” value (MCF-7 cells; MCF-7 (C) and (Sc)) was “significantly increased”, the “breast cancer cell growth” value (MCF-7 cells; MCF-7, 24 h) was “significantly stimulated” and the “Nic-induced growth effects in α9-nAChR siRNA knockdown (Si) cells” value (MCF-7 cells; MCF-7 α9-nAChR (Si)) was “almost completely attenuated”. The “cell number in normal breast epithelial cells” value (MCF-10A cells) was “no changes”, the “Nic concentration in gastric juices” value ([1]; in vivo) was over 800 ng/mL and the “Nic concentration in plasma” value ([1]; in vivo) was “about 15 ng/mL”. For the same compound, the “Nic concentration in saliva” value ([1]; in vivo) was over 1300 ng/mL, the “saliva concentration of nicotine” value ([1]; in vivo) was 1 mM and the “serum concentration of nicotine” value ([1]; in vivo) was 10 to 100 µM. The “steady-state serum concentration of nicotine” value ([1]; in vivo) was 200 nM, the “inhaled Nic absorbed systemically during smoking” value ([1]; studies using ^14C-Nic) was 80-90% and the “time after Nic treatment at which significant increase in α9-nAChR mRNA level was detected” value (α9-nAChR mRNA; Nic 1 μM time course) was 6 h. The “α9-nAChR mRNA expression (real-time PCR)” value (α9-nAChR mRNA; Nic 10 μM or E2 10 nM, 24 h) was “significantly upregulated”, the “levels of p-AKT (Ser^473)” value (p-AKT (Ser^473)) was “significantly increased” and the “induction of full-length α9-nAChR promoter luciferase activity” value (α9-nAChR promoter) was 41.8 fold.
In the case of `CN1CCCC1c1cccnc1` [[^3H]-Nic, L-(−)-[N-methyl-^3H]-Nic], the Kd (α9-nAChR; read-out: dissociation constant (Kd) of [^3H]-Nic binding) is given as 3 nM.
In the case of `[3H]CN1CCCC1c1cccnc1` [[^3H]-Nic, L-(−)-[N-methyl-^3H]-Nic], the “time at which maximum binding activity is attained” value (α9-nAChR) is given as 60 min.
